Laboratory results from US8663927B2, “Systems and methods for diagnosis and monitoring of bacteria-related conditions” (priority 2007, dated 2014).

What was measured:
[1] = target: T1, RhlR (Pseudomonas aeruginosa, UniProt P54292); experiment: Whole-cell sensing system harboring plasmid pSB406 (rhlR, PrhlI::luxCDABE) in E. coli JM109, bioluminescence; type: cell-based; details: for response of the biosensing system at the highest concentration tested: pSB406, 1×10^−4 M; for Limit of Detection: concentration giving signal >= blank average plus three standard deviations; for Signal Intensity at 1 × 10^−4 M: pSB406 sensing cells, 2 h incubation at 37° C., racemic AHL, average ± one standard deviation
T1 construct: expressed in transfected cells; host or cells: Escherichia coli JM109 transformed with plasmid pSB406
T1 sequence (P54292 whole entry): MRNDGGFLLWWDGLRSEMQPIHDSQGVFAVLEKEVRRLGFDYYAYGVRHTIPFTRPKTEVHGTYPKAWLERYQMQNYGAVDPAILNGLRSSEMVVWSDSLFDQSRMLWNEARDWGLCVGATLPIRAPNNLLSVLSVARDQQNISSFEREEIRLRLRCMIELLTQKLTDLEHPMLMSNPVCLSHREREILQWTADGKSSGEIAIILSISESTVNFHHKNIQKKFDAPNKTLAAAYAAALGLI
Experimental: (§1) The bacterial strain Escherichia coli JM109 was purchased from Stratagene (Cedar Creek, Tex.). Plasmids pSB406 and pSB1075 were transformed respectively into competent E. coli JM109 cells using the standard protocol provided by the manufacturer. The transformed cells were grown at 37° C. overnight on LB agar plates containing 50 μg/mL ampicillin. Cells from a single colony were grown overnight at 37° C., 250 rpm in LB broth containing the same amount (w/v) of ampicillin. Glycerol stocks were prepared from those cell cultures and stored at −80° C. Fresh cell cultures were obtained from the glycerol stocks and grown in an orbital shaker at 37° C., 250 rpm until an optical density at 600 nm (OD600 nm) of 0.45-0.50 was reached.
(§2) Commercially available AHLs were dissolved in acetonitrile to obtain 1×10^−2 M stock solutions, which were serially diluted with distilled, deionized water. AHL standard solutions of concentrations ranging from 1×10^−4 to 1×10^−9 M were obtained. A 1% solution of acetonitrile in distilled, deionized water was used as blank. […] A total of 100 μL of each of these solutions was added in triplicate to culture tubes containing 1 mL of cell culture grown to an OD600 nm of 0.45-0.50. These culture tubes were then incubated in an orbital shaker at 37° C. at 250 rpm for 2 h. The induced bioluminescence was then measured using a microplate reader after transferring 200 μL aliquots in triplicate from each culture tube into a 96-well micro titer plate. The total measuring time/well was 0.20 s. The light intensity was expressed in relative light units (RLU). The results were plotted using the software GraphPad Prism 4 (GraphPad Software, Inc., San Diego, Calif.).
(§3) Two different whole-cell sensing systems were used, harboring either the pSB406 or pSB1075 plasmid, which are based on P. aeruginosa quorum sensing regulatory systems. The plasmids pSB406 and pSB 1075 incorporate the genes rhlR and lasR, respectively, and the reporter gene cassette luxCDABE under transcriptional control of the promoters of the genes rhlI and lasI (PrhlI and PlasI) respectively. Since the rhlI and lasI genes code for the synthases for the AHLs, they are not cloned into plasmids used for sensing. When AHLs are present in the environment of the sensing bacterial cells, they bind to the regulatory proteins RhlR and LasR. Subsequently, the regulatory protein-AHL complex binds to the corresponding promoter and activates gene transcription (see, e.g., FIG. 2A for a schematic representation of AHL-dependent regulation of quorum sensing in LuxR/LuxI-type systems, and FIG. 2B for a schematic representation of plasmids pSB1075 and pSB406). As a result, the luxCDABE cassette is expressed and a bioluminescent signal is produced. Further, the bioluminescence signal produced is directly proportional to the amount of the target AHL molecule present.
Characterization of the whole-cell biosensing systems for the detection of AHLs was performed by incubating the bacterial cells with standard N-acyl homoserine lactone compounds with acyl side chains of different lengths. […] [19] […] Both compounds could be detected at concentrations as low as 1×10^−9 M, with a dynamic range of 4 orders of magnitude. The limit of detection was defined as the analyte concentration that produced a signal equal to or higher than the average signal produced by the blank plus three standard deviations.

[2] = target: T2, LasR (Pseudomonas aeruginosa, UniProt P25084); experiment: Whole-cell sensing system harboring plasmid pSB1075 (lasR, PlasI::luxCDABE) in E. coli JM109, bioluminescence; type: cell-based; details: for Limit of Detection / Dynamic Range: pSB1075; for Limit of Detection: concentration giving signal >= blank average plus three standard deviations; for Signal Intensity at 1 × 10^−4 M: pSB1075 sensing cells, 2 h incubation at 37° C., racemic AHL, average ± one standard deviation (n = 3)
T2 construct: expressed in transfected cells; host or cells: Escherichia coli JM109 transformed with plasmid pSB1075
T2 sequence (P25084 whole entry): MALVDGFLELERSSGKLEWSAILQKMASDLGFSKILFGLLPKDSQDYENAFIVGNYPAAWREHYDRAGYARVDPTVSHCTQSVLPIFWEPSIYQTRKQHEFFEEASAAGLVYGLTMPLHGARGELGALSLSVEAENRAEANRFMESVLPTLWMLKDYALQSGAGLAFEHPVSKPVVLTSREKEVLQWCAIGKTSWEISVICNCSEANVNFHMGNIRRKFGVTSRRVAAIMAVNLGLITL
Experimental: as §1, §2, §3
The limit of detection was 1×10^−9 M for C14-HSL, as well as C12-HSL.

[3] = system: V. harveyi strain BB170; experiment: AI-2 whole-cell sensing with bioluminescent sensor strain BB170; type: cell-based, Vibrio harveyi; details: 10^−7 M AI-2, after 2.5 hours of incubation with the BB170 sensor strain
Experimental: AB media used to grow V. harveyi strain BB170, a genetically modified strain that produces light in response to AI-2, was prepared as described previously. The BB170 sensor strain was grown overnight in AB medium at 30° C. and 175 rpm. The following day, overnight grown BB170 culture was diluted in AB medium to obtain a final O.D.600 nm of 0.010.
Saliva samples were collected and processed as described hereinabove. The available stock of AI-2 was 3.9 mM. AI-2 standard solutions with concentrations ranging from 2.5×10^−4M to 10^−7M were then prepared by using distilled, deionized water. 10 μL of AI-2 standard solution was incubated with 90 μL of BB170 bacterial culture at O.D.600 nm 0.010, in triplicate on a microtitre plate. 10 μL water incubated with 90 μL of BB170 served as a blank. An orbital shaker set at 30° C. and 175 rpm was used for incubation. Bioluminescence was then measured over a period of time. In order to evaluate the effect of saliva matrix, saliva samples were also spiked with a particular concentration of AI-2 and then incubated with the BB170 strain. […]
Vibrio harveyi bioluminescent strain BB170 was used for the detection of AI-2 and was modified from the wild type V. harveyi so that it induces lux expression exclusively in response to AI-2. AI-2 is detected by BB170 when it binds to the periplasmic protein LuxP. […]

For CCCC(=O)CC(=O)N[C@H]1CCOC1=O [3-oxo-C6-HSL, N-(3-oxo)-hexanoyl homoserine lactone], the “L-isomer versus DL-racemic mixture: limit of detection, dynamic range and maximum signal intensity of the dose-response curves” value ([1]; pSB406) was “no significant differences”.

In the case of CCCCCC(=O)NC1CCOC1=O (centres unmarked) [C6-HSL, N-hexanoyl homoserine lactone], the “Dynamic Range” value ([1]; pSB406) is reported as 1 to 100000 nM, the dynamic range ([1]; pSB406) is reported as 4 orders of magnitude and the “response of the biosensing system at the highest concentration tested” value [1] is reported as “induced the maximum response”. The “Limit of Detection” value ([1]; pSB406) was 1 nM, the “Signal Intensity at 1 × 10^−4 M” value [1] was 19.64 ± 0.25 ×10^5, RLU and the “Limit of Detection” value [2] was >100000 nM. For the same compound, the “Signal Intensity at 1 × 10^−4 M” value [2] was 2.53 ± 1.15 ×10^5, RLU.

For Autoinducer-2 [AI-2], the “Average Signal” value [3] was 324218 RLU.

In the case of CCCCCCCC(=O)NC1CCOC1=O (centres unmarked) [C8-HSL, N-octanoyl homoserine lactone], the “Dynamic Range” value ([1]; pSB406) is reported as 1 to 100000 nM, the “Limit of Detection” value ([1]; pSB406) is reported as 1 nM and the “Signal Intensity at 1 × 10^−4 M” value [1] is reported as 6.87 ± 0.23 ×10^5, RLU. The “Dynamic Range” value [2] was 10000 to 100000 nM, the “Limit of Detection” value [2] was 10000 nM and the “Signal Intensity at 1 × 10^−4 M” value [2] was 7.94 ± 0.70 ×10^5, RLU.

With CCCC(=O)NC1CCOC1=O (centres unmarked) [C4-HSL, N-butyryl homoserine lactone] the “Dynamic Range” value ([1]; pSB406) was 1 to 100000 nM, the dynamic range ([1]; pSB406) was 4 orders of magnitude and the “response of the biosensing system at the highest concentration tested” value [1] was “induced the maximum response”. The “Limit of Detection” value ([1]; pSB406) was 1 nM, the “Signal Intensity at 1 × 10^−4 M” value [1] was 19.99 ± 0.00 ×10^5, RLU and the “Dynamic Range” value [2] was 100 to 100000 nM. The “Limit of Detection” value [2] was 100 nM and the “Signal Intensity at 1 × 10^−4 M” value [2] was 1.87 ± 0.06 ×10^5, RLU.

In the case of CCCCCCCCCCCCCC(=O)NC1CCOC1=O (centres unmarked) [C14-HSL, N-tetradecanoyl homoserine lactone], the “Limit of Detection” value ([1]; pSB406) is reported as >10000 nM, the “Signal Intensity at 1 × 10^−4 M” value [1] is reported as 4.22 ± 0.22 ×10^5, RLU and the “Dynamic Range” value [2] is reported as 1 to 100000 nM. The “response of the whole-cell sensor at the highest concentration tested” value ([2]; pSB1075, 1×10^−4 M) was “induced the maximum response”, the “Limit of Detection” value [2] was 1 nM and the “Signal Intensity at 1 × 10^−4 M” value [2] was 11.74 ± 0.09 ×10^5, RLU.

In the case of CCCCCCCCCCCC(=O)NC1CCOC1=O (centres unmarked) [C12-HSL, N-dodecanoyl homoserine lactone], the “Dynamic Range” value ([1]; pSB406) is reported as 10 to 10000 nM, the “Limit of Detection” value ([1]; pSB406) is reported as 10 nM and the “Signal Intensity at 1 × 10^−4 M” value [1] is reported as 8.40 ± 0.55 ×10^5, RLU. The “Dynamic Range” value [2] was 1 to 10000 nM, the “Limit of Detection” value [2] was 1 nM and the “Signal Intensity at 1 × 10^−4 M” value [2] was 8.99 ± 0.17 ×10^5, RLU.
